Assay results from article PMC4971072, “Chemically Homogenous Compounds with Antagonistic Properties at All α1-Adrenoceptor Subtypes but not β1-Adrenoceptor Attenuate Adrenaline-Induced Arrhythmia in Rats” (Frontiers in Pharmacology, 2016).
Structures can show the parent of a compound that is named as a salt. Marks after values point to notes of the source that are not given here.

What was measured:
[1] = system: normal ECG in rats; assay: The effect on normal electrocardiogram in rats; type: in vivo, rat; conditions: anesthetized rats
Protocol: The experiment was carried out to exclude the influence of tested compounds on normal ECG. […] The influence on QRS complex, PQ interval, heart rate (RR), and QTc interval was determined.

[2] = system: lipid peroxidation in rat brain homogenate; assay: Lipid peroxidation in rat brain homogenate (TBARS), antioxidant effect; type: biochemical; conditions: 10^−3 M
[3] = target: T1, α1A-adrenoceptors (Rattus norvegicus, UniProt P43140); assay: Functional bioassay, isolated rat tail artery, noradrenaline contraction; type: biochemical; conditions: noradrenaline as agonist
T1 construct: the middle part of the ventral caudal artery was removed; from tissue; host or cells: isolated rat tail (ventral caudal) artery rings
T1 sequence (P43140 1-466): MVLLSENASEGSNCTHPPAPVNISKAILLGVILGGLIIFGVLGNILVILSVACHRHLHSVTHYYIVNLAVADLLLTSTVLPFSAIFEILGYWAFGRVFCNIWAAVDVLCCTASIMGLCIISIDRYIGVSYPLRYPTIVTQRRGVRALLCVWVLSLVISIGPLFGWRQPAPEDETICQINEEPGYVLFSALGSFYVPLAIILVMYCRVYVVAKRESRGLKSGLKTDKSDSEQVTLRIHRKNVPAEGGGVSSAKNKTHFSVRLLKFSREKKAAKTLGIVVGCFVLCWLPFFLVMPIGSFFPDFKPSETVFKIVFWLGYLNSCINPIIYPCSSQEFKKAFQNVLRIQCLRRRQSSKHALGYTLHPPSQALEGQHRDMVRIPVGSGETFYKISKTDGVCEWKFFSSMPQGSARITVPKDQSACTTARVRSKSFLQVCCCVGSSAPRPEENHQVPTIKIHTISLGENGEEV
Protocol: The isolated artery, cut into ~4 mm long rings, was then horizontally put up between two stainless steel hooks (diameter 0.15 mm). One hook was fastened to the bottom of the chamber and the other to an isometric FDT10-A force displacement transducer (DMT Model 750TOBS, Denmark), linked with Powerlab 4/26 analyzer (ADInstruments), and processed by LabChart 7 software. […] The initial optimal tissues tension was set at 0.75 g. Chloroethylclonidine (3 μM) as the preferential α1B-adrenoreceptor alkylating agent was used during incubation and after 30 min it was completely washed off. Through 100 min of equilibration tissues were stimulated with noradrenaline (1 μM) four times with washing out until the contractile response become constant. Two cumulative concentration-response curves to noradrenaline, at an interval of 60 min, were established on each arterial ring both in the presence and absence of antagonist. The incubation with antagonists went on for 30 min. The experiments were carried out in the constant presence of yohimbine (0.1 μM) and propranolol (1 μM) to block α2- and β-adrenoceptors, respectively in order to minimize the involvement of these adrenoceptors in the response to noradrenaline.
Data are means ± S.E.M. of at least 4 separate experiments. To establish Hill slopes for the agonist concentration–response curves and calculate EC50 values, curves were fitted to all the data by non-linear regression. The EC50 value in the presence and absence of antagonists was used to ascertain the concentration ratio (CR). Schild analysis was performed.

[4] = system: adrenaline-induced arrhythmia in rats; assay: Therapeutic antiarrhythmic activity in adrenaline-induced arrhythmia; type: in vivo, rat; conditions: i.v. at ED84 at the peak of adrenaline-induced arrhythmia (20 μg/kg)
Protocol: The ECG was recorded constantly for 5 min as well as in the 10th and 15th min of the experiment.

[5] = system: adrenaline-induced arrhythmia in rats; assay: Prophylactic antiarrhythmic activity in adrenaline-induced arrhythmia; type: in vivo, rat
Protocol: The studied compounds were administered i.p. 45 min before the injection of adrenaline, calcium chloride, or barium chloride. The electrocardiogram (ECG) was recorded during the first 2 min as well as in the 5th, 10th, and 15th min after the arrhythmogen injection. […]

[6] = i.p. at ED84, 0 min (initial values)
[7] = dose 0.1 mg/kg i.p. 45 min before adrenaline 20 μg/kg i.v.
[8] = dose 0.2 mg/kg i.p. 45 min before adrenaline 20 μg/kg i.v.
[9] = dose 0.3 mg/kg i.p. 45 min before adrenaline 20 μg/kg i.v.

Q: How did the “influence on ECG parameters (PQ interval, QRS complex, QTc interval)” value ([1]; i.p. at ED84) turn out when COc1ccccc1N1CCN(CCCOc2c(C)cc(C)cc2C)CC1 [HBK-18, 1N-[3-(2,4,6-trimethylphenoxy)propyl]-4N-(2-methoxyphenyl)piperazine hydrochloride] was run?
A: did not affect PQ interval, QRS complex or QTc interval

Q: And the “reduction of heart rate” value ([1]; i.p. at ED84, over the period of significant effect vs. initial values)?
A: 13−23%

Q: What about the “Beats/min (ECG)” value [1, 6] of the same compound?
A: 328.0 ± 7.4 Beats/min

Q: What about the “PQ (ECG)” value [1, 6] of the same compound?
A: 61.3 ± 4.6 ms

Q: What about the “QRS (ECG)” value [1, 6] of the same compound?
A: 28.1 ± 3.1 ms

Q: And the “QT (ECG)” value [1, 6]?
A: 73.9 ± 6.2 ms

Q: And the “QTc (ECG, Bazett)” value [1, 6]?
A: 172.4 ± 13.5 ms

Q: What about the “Beats/min (ECG)” value ([1]; i.p. at ED84, 5 min) of the same compound?
A: 306.9 ± 9.0 Beats/min

Q: And the “PQ (ECG)” value ([1]; i.p. at ED84, 5 min)?
A: 61.5 ± 6.3 ms

Q: What about the “QRS (ECG)” value ([1]; i.p. at ED84, 5 min) of the same compound?
A: 30.4 ± 3.2 ms

Q: What about the “QT (ECG)” value ([1]; i.p. at ED84, 5 min) of the same compound?
A: 77.0 ± 7.0 ms

Q: And the “QTc (ECG, Bazett)” value ([1]; i.p. at ED84, 5 min)?
A: 174.2 ± 16.3 ms

Q: And the “Beats/min (ECG)” value ([1]; i.p. at ED84, 10 min)?
A: 298.7 ± 8.9 Beats/min

Q: What about the “PQ (ECG)” value ([1]; i.p. at ED84, 10 min) of the same compound?
A: 57.4 ± 4.2 ms

Q: What about the “QRS (ECG)” value ([1]; i.p. at ED84, 10 min) of the same compound?
A: 30.8 ± 3.6 ms

Q: And the “QT (ECG)” value ([1]; i.p. at ED84, 10 min)?
A: 77.7 ± 4.9 ms

Q: And the “QTc (ECG, Bazett)” value ([1]; i.p. at ED84, 10 min)?
A: 173.4 ± 11.7 ms

Q: What about the “Beats/min (ECG)” value ([1]; i.p. at ED84, 15 min) of the same compound?
A: 284.7 ± 7.6^a Beats/min

Q: What about the “PQ (ECG)” value ([1]; i.p. at ED84, 15 min) of the same compound?
A: 55.8 ± 1.6 ms

Q: And the “QRS (ECG)” value ([1]; i.p. at ED84, 15 min)?
A: 27.0 ± 2.9 ms

Q: And the “QT (ECG)” value ([1]; i.p. at ED84, 15 min)?
A: 76.1 ± 5.8 ms

Q: What about the “QTc (ECG, Bazett)” value ([1]; i.p. at ED84, 15 min) of the same compound?
A: 166.4 ± 14.5 ms

Q: What about the “Beats/min (ECG)” value ([1]; i.p. at ED84, 20 min) of the same compound?
A: 273.9 ± 8.0^b Beats/min

Q: What about the “PQ (ECG)” value ([1]; i.p. at ED84, 20 min) of the same compound?
A: 51.9 ± 3.8 ms

Q: What about the “QRS (ECG)” value ([1]; i.p. at ED84, 20 min) of the same compound?
A: 29.1 ± 2.7 ms

Q: And the “QT (ECG)” value ([1]; i.p. at ED84, 20 min)?
A: 77.9 ± 4.2 ms

Q: And the “QTc (ECG, Bazett)” value ([1]; i.p. at ED84, 20 min)?
A: 166.9 ± 11.1 ms

Q: And the “Beats/min (ECG)” value ([1]; i.p. at ED84, 30 min)?
A: 267.4 ± 17.5^c Beats/min

Q: And the “PQ (ECG)” value ([1]; i.p. at ED84, 30 min)?
A: 56.9 ± 3.5 ms

Q: What about the “QRS (ECG)” value ([1]; i.p. at ED84, 30 min) of the same compound?
A: 28.5 ± 2.8 ms

Q: And the “QT (ECG)” value ([1]; i.p. at ED84, 30 min)?
A: 75.3 ± 3.2 ms

Q: What about the “QTc (ECG, Bazett)” value ([1]; i.p. at ED84, 30 min) of the same compound?
A: 159.0 ± 9.7 ms

Q: What about the “Beats/min (ECG)” value ([1]; i.p. at ED84, 40 min) of the same compound?
A: 260.3 ± 22.8^c Beats/min

Q: And the “PQ (ECG)” value ([1]; i.p. at ED84, 40 min)?
A: 57.4 ± 3.1 ms

Q: What about the “QRS (ECG)” value ([1]; i.p. at ED84, 40 min) of the same compound?
A: 28.6 ± 2.8 ms

Q: What about the “QT (ECG)” value ([1]; i.p. at ED84, 40 min) of the same compound?
A: 76.9 ± 4.9 ms

Q: What about the “QTc (ECG, Bazett)” value ([1]; i.p. at ED84, 40 min) of the same compound?
A: 160.4 ± 14.4 ms

Q: What about the “Beats/min (ECG)” value ([1]; i.p. at ED84, 50 min) of the same compound?
A: 258.9 ± 25.4^c Beats/min

Q: And the “PQ (ECG)” value ([1]; i.p. at ED84, 50 min)?
A: 59.0 ± 3.8 ms

Q: What about the “QRS (ECG)” value ([1]; i.p. at ED84, 50 min) of the same compound?
A: 27.6 ± 3.0 ms

Q: And the “QT (ECG)” value ([1]; i.p. at ED84, 50 min)?
A: 76.0 ± 2.9 ms

Q: What about the “QTc (ECG, Bazett)” value ([1]; i.p. at ED84, 50 min) of the same compound?
A: 157.2 ± 9.9 ms

Q: What about the “Beats/min (ECG)” value ([1]; i.p. at ED84, 60 min) of the same compound?
A: 252.3 ± 25.1^c Beats/min

Q: And the “PQ (ECG)” value ([1]; i.p. at ED84, 60 min)?
A: 59.6 ± 4.7 ms

Q: What about the “QRS (ECG)” value ([1]; i.p. at ED84, 60 min) of the same compound?
A: 30.9 ± 3.8 ms

Q: And the “QT (ECG)” value ([1]; i.p. at ED84, 60 min)?
A: 76.7 ± 3.5 ms

Q: And the “QTc (ECG, Bazett)” value ([1]; i.p. at ED84, 60 min)?
A: 157.1 ± 12.0 ms

Q: And the “inhibition of lipid peroxidation (in words)” value [2]?
A: inhibited lipid peroxidation

Q: And the “% reduction of absorbance (% antioxidant activity)” value ([2]; TBARs at 532 nm)?
A: 13.41%

Q: And the Absorbance ([2]; TBARs at 532 nm)?
A: 0.781 ± 0.004

Q: What about the “Schild slope ± S.E.M., α1A” value [3] of the same compound?
A: 1.10 ± 0.06

Q: And the Kb ([3]; read-out: pA2 ± S.E.M., α1A (converted))?
A: 3.24 nM

Q: What about the “therapeutic antiarrhythmic activity (premature ventricular contractions)” value [4] of the same compound?
A: restored normal heart rhythm

Q: What about the ED50 ([5]; Rattus norvegicus, read-out: ED50 (confidence limits)) of the same compound?
A: 0.18 mg/kg

Q: What about the “Bigeminy (%)” value [5, 7] of the same compound?
A: 50.0%

Q: And the “Blocks (%)” value [5, 7]?
A: 66.7%

Q: What about the “Bradycardia (%)” value [5, 7] of the same compound?
A: 66.7%

Q: What about the “Extrasystoles (%)” value [5, 7] of the same compound?
A: 83.3%

Q: And the “Bigeminy (%)” value [5, 8]?
A: 16.7%

Q: And the “Blocks (%)” value [5, 8]?
A: 33.0%

Q: And the “Bradycardia (%)” value [5, 8]?
A: 50.0%

Q: What about the “Extrasystoles (%)” value [5, 8] of the same compound?
A: 50.0%

Q: What about the “Blocks (%)” value [5, 9] of the same compound?
A: 16.3%

Q: And the “Bradycardia (%)” value [5, 9]?
A: 16.3%

Q: What about the “Extrasystoles (%)” value [5, 9] of the same compound?
A: 16.7%
